Data reported in article PMC5573954 (Hippocampus, 2017).
Like-named read-outs stand apart in the source and are kept apart here.

How the values were obtained:
hM3 = hM3 (Homo sapiens, UniProt P20309); test: FLIPR Ca2+ functional assay, CHO K1 cells stably expressing hM3; type: cell-based
hM5 = biological target: T1, hM5 (Homo sapiens, UniProt P08912); test: FLIPR Ca2+ functional assay, CHO K1 cells stably expressing hM5; type: cell-based
T1 sequence (P08912 1-532): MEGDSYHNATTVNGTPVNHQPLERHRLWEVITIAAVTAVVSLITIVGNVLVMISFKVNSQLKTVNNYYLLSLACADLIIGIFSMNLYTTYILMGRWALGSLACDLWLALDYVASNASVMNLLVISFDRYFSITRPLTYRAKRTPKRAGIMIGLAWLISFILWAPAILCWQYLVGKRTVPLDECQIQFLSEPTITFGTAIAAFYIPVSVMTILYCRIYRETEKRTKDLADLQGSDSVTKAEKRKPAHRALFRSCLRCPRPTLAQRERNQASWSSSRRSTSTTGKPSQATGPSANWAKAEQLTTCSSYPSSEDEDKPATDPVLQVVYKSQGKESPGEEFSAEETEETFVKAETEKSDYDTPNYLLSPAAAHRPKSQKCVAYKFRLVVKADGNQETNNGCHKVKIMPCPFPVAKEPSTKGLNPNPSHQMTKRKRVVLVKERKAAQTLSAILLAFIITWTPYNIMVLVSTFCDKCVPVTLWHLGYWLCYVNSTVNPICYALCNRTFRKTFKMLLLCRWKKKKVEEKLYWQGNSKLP

hM4 = biological target: T2, hM4 (Homo sapiens, UniProt P08173); test: GloSensor cAMP functional assay, HEK293 cells stably expressing hM4; details: for selectivity for hM4 over hM2 (fold shift of PAM EC50): hM2 EC50 versus hM4 EC50, PAM mode
T2 sequence (P08173 1-479): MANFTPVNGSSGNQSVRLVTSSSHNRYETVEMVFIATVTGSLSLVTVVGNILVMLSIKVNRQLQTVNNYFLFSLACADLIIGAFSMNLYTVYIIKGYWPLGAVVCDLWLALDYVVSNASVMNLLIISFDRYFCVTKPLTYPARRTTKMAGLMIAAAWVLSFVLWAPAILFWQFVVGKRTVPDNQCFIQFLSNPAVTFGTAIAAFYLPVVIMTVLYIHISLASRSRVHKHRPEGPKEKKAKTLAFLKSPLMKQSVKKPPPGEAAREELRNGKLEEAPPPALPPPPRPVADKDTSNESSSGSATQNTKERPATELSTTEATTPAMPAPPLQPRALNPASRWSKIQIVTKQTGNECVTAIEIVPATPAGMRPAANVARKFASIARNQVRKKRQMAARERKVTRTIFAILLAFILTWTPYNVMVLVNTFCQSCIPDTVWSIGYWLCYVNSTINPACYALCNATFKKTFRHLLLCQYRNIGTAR

rat M4 receptor (rM4) = biological target: T3, rat M4 receptor (rM4) (Rattus norvegicus, UniProt P08485); test: GloSensor cAMP functional assay, HEK293 cells stably expressing rM4
T3 sequence (P08485 1-478): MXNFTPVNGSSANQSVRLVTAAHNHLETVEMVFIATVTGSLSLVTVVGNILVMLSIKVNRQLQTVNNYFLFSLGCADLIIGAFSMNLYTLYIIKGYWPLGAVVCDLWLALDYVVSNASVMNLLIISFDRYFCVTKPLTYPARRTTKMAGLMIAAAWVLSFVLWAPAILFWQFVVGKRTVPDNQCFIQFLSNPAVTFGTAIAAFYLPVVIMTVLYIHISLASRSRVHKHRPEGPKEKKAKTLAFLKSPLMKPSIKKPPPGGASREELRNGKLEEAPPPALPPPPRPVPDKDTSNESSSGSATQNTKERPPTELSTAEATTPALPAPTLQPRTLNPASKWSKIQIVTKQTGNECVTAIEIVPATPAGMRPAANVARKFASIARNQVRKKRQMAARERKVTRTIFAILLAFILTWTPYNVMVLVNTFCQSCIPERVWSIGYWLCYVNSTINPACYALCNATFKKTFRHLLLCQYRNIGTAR

[1] = tested on: SC‐evoked EPSCs in CA1 pyramidal neurons; type: cell-based, rat
[2] = tested on: TA‐evoked EPSCs in CA1 pyramidal neurons; type: cell-based, rat
hM1 = biological target: T4, hM1 (Homo sapiens, UniProt P11229); test: FLIPR Ca2+ functional assay, CHO K1 cells stably expressing hM1; type: cell-based
T4 sequence (P11229 1-460): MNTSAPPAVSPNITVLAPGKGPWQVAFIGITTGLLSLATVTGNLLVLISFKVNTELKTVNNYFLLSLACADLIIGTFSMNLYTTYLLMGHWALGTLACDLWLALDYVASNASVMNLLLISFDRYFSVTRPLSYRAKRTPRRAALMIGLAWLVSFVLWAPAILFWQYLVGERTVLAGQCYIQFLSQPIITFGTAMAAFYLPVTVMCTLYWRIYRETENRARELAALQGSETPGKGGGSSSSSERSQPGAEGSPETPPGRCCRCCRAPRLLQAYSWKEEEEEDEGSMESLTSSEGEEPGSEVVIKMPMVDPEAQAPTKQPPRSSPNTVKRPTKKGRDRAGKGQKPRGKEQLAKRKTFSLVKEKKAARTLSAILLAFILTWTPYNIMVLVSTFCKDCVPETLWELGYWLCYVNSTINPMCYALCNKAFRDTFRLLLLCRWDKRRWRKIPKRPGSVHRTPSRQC

CA1 pyramidal neurons = test: Whole‐cell current step evoked firing of CA1 pyramidal neurons; type: cell-based, rat
[3] = tested on: putative PV+ CA1 interneurons; test: Whole‐cell current step evoked firing of putative PV+ CA1 interneurons; type: cell-based, rat; details: 300 nM; n = 4; p = 0.0275
[4] = tested on: spontaneous firing rates of CA1 neurons
hM2 = biological target: T5, hM2 (Homo sapiens, UniProt P08172); test: GloSensor cAMP functional assay, HEK293 cells stably expressing hM2; type: cell-based
T5 sequence (P08172 1-466): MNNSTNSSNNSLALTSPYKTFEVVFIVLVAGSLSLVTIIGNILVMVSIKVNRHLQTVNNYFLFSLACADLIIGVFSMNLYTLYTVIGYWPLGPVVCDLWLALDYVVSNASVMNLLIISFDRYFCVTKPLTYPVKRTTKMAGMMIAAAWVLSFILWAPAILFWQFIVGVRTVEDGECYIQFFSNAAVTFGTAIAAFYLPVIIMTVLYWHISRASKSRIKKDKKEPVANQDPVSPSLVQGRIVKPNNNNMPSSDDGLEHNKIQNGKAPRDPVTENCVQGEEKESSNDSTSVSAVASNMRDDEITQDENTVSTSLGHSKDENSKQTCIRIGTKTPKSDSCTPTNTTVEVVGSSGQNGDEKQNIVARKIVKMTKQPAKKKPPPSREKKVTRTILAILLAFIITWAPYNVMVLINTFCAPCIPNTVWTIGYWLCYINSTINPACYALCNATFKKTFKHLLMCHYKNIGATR

rat M4 receptor = details: ref Chan et al., 2008; cited from earlier work
[5] = biological target: beta‐2 adrenergic receptors (Homo sapiens, UniProt P07550); test: Nonmuscarinic off-target functional activity: beta-2 adrenergic antagonism; type: cell-based
Sequence of beta‐2 adrenergic receptors (P07550 whole entry): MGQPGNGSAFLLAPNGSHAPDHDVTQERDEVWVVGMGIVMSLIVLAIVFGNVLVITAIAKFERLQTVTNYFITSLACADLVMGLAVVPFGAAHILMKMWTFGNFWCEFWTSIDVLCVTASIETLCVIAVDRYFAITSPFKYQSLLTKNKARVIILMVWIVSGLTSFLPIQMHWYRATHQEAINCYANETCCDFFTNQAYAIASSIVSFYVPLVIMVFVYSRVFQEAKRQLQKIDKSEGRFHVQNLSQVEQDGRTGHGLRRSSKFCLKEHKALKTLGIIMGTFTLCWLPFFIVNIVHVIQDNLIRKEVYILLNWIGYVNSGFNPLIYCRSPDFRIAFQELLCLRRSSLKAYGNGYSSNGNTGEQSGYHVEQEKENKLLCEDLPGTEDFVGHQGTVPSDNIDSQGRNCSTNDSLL

5HT2b receptors = 5HT2b receptors (Homo sapiens, UniProt P41595); test: Nonmuscarinic off-target functional activity: 5HT2b antagonism; type: cell-based
Sequence of 5HT2b receptors (P41595 whole entry): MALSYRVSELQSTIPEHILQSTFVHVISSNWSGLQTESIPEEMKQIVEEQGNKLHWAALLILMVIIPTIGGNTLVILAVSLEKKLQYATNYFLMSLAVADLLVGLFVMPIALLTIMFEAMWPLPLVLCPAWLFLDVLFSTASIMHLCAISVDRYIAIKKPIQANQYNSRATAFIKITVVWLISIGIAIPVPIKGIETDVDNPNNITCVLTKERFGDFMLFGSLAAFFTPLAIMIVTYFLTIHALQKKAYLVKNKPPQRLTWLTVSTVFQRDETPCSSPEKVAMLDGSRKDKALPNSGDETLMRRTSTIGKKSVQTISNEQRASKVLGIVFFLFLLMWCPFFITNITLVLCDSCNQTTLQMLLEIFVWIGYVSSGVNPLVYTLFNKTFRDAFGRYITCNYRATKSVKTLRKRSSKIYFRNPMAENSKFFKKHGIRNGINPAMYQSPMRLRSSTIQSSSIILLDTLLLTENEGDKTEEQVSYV

[6] = tested on: SC‐evoked synaptic field potentials in CA1 of hippocampal slices; test: Extracellular field potentials evoked by SC stimulation, hippocampal slices; details: from fitted dose–response curve, Figure 2a
[7] = 5 μM, end of recordings with PT‐3763, mean ± SEM

Sequence of hM3 (P20309 whole entry): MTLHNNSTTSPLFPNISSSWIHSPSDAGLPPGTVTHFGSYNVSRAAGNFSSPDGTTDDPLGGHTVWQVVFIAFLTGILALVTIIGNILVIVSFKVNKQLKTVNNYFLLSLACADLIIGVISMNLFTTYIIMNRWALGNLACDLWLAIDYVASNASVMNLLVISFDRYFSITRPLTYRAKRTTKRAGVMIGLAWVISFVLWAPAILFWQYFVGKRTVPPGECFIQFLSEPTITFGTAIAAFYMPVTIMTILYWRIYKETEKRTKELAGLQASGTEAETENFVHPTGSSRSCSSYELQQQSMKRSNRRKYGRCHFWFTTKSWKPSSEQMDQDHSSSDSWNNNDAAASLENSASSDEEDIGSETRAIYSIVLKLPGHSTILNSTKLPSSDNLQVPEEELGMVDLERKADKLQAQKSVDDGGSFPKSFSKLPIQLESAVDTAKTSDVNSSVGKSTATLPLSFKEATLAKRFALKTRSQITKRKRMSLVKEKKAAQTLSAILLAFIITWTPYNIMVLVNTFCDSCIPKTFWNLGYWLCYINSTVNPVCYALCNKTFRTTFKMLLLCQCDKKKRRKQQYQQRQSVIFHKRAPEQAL

CC(=O)OCC[N+](C)(C)C [ACh, acetylcholine]
ACh EC20 (hM3; hM3 cell line): 0.0008 µM | ACh EC20 (hM5; hM5 cell line): 0.002 µM | ACh EC20 (hM4; hM4 cell line): 0.015 µM | ACh EC20 (rat M4 receptor (rM4); rM4 cell line): 0.0008 µM

N#Cc1cc2[nH]c(=O)c(=O)[nH]c2cc1[N+](=O)[O-] [CNQX]
CNQX‐induced suppression of SC‐evoked responses [1, 7]: 85.2 ± 4.1% | CNQX‐induced suppression of TA‐evoked responses [2, 7]: 79.4 ± 4.8%

Cc1cc(F)c2[nH]c(=O)n(C3CCN(C4CCOCC4)CC3)c2c1 [GSK1034702]
EC50 (hM1): 0.027 µM | effect on amplitude, slope, or PPR of EPSCs evoked by SC stimulation ([1]; 300 nM, 100 μM picrotoxin): no significant effect | effect on amplitude, slope, or PPR of EPSCs evoked by TA stimulation ([2]; 300 nM, 100 μM picrotoxin): no significant effect | spike frequency accommodation (CA1 pyramidal neurons; 300 nM, 200 pA current injection): significantly reduced | number of spikes evoked in response to a 200 pA injected current step (CA1 pyramidal neurons; 300 nM, p = 0.012 vs baseline): increase | firing rates of interneurons following current step [3]: increased firing rates | EC50 (hM4): 1.43 µM | upper z‐score asymptote of normalized spontaneous firing rates ([4]; GSK1034702 data set with VU0255035 reversal): 56.3 ± 11.9 | upper z‐score asymptote of normalized spontaneous firing rates ([4]; GSK1034702 data set with pirenzipine reversal): 86.9 ± 13.6

COc1nc2sc(C(=O)NC3CC3)c(N)c2c(C)c1Cl [LY2033298]
EC50 (hM2; hM2, PAM mode, in the presence of an EC20 of ACh (3 nM), isoproterenol 50 nM, brackets 95% CI): 3.28 µM | potency at the rat M4 receptor compared with the human (rat M4 receptor): much weaker | EC50 (hM4; hM4, PAM mode, in the presence of an EC20 of ACh (15 nM), isoproterenol 50 nM, brackets 95% CI): 0.041 µM

Cc1nnc2sc(C(=O)NC3CN(c4cccnc4)C3)c(N)c2c1C [PT‐1148, 5‐amino‐3,4‐dimethyl‐N‐(1‐(pyridin‐3‐yl)azetidin‐3‐yl)thieno[2,3‐c]pyridazine‐6‐carboxamide]
selectivity for hM4 over hM2 (fold shift of PAM EC50) (hM4): 536 fold | upper z‐score asymptote of normalized spontaneous firing rates ([4]; in the presence of 20 nM oxotremorine and 1 μM VU0255035, not significant (p = 0.875)): 3.77 ± 23.9

Cc1cc(C)c2c(N)c(C(=O)NC3CN(c4cccnc4)C3)sc2n1 [PT‐3763, 3‐amino‐4,6‐dimethyl‐N‐(1‐(pyridin‐3‐yl)azetidin‐3‐yl)thieno[2,3‐b]pyridine‐2‐carboxamide]
IC50 [5]: 2.99 µM | selectivity for hM4 over hM2 (fold shift of PAM EC50) (hM4): 28 fold

CCOC(=O)N1CCCC(N2CCC(c3cccnc3OC)CC2)CC1 (stereo not shown) [PT‐6950, ethyl 4‐(4‐(2‐methoxypyridin‐3‐yl)piperidin‐1‐yl)azepane‐1‐carboxylate]
EC50 (hM1): 0.312 µM | EC50 (hM2): 2.88 µM | EC50 (hM3): > 10 µM | EC50 (hM5): > 10 µM | IC50 (5HT2b receptors): 1.26 µM | EC50 (rat M4 receptor (rM4)): 0.00262 µM | upper z‐score asymptote of normalized spontaneous firing rates ([4]; compound alone, mean ± SEM): 12.0 ± 16.7

O=C(CCNS(=O)(=O)c1cccc2nsnc12)N1CCN(c2ccncc2)CC1 [VU0255035]
effect on GSK1034702 induced increase in CA1 firing rates ([4]; 3 μM): reversed | effect on oxotremorine induced increase in spontaneous firing rates ([4]; 3 μM): partially reversed

O=C1CCCN1CC#CCN1CCCC1 [oxotremorine]
upper z‐score asymptote of normalized spontaneous firing rates ([4]; compound alone, mean ± SEM): 108.2 ± 6.3 | EC20 of oxotremorine for reduction of SC‐evoked field potentials [6]: 0.02 µM

CN1CCN(CC(=O)N2c3ccccc3C(=O)Nc3cccnc32)CC1 [pirenzepine]
effect on M4 PAM induced reduction of SC‐evoked EPSC amplitude and slope ([1]; 3 μM, applied after PTX + OXO + M4 PAM): reversed | effect on GSK1034702 induced increase in evoked spikes (CA1 pyramidal neurons; 3 μM): reversed | effect on GSK1034702 induced reduction of spike frequency accommodation (CA1 pyramidal neurons; 3 μM): similarly reversed | effect on GSK1034702 induced increase in CA1 firing rates ([4]; 3 μM): reversed
